Results published in patent US11465993B2, “Water soluble novel cyanine fluorophore with tunable properties between near IR and SWIR region for in vivo imaging” (The USA, as represented by the Secretary, Department of …, priority 2018, dated 2022).

Assays:
[1] = Emission (fluorescence) spectra of cyanine fluorophores in different solvents
[2] = Absorbance spectra of cyanine fluorophores in different solvents (absorbance maximum, molar absorptivity)
[3] = Solubility and aggregation in PBS, serum or organic solvent; conditions: for aggregation: PBS and serum; for solubility: medium as stated in the value
[4] = pH 7.4 PBS, excitation wavelength per compound (figure legends)
[5] = pH 7.4 PBS, at wavelength of maximum absorbance

Row | SMILES | emission maximum (λmax, emiss) ([1]; acetonitrile) [nm] | absorbance maximum (λmax, abs) ([2]; acetonitrile) [nm] | emission maximum (λmax, emiss) ([1]; 0.1% formic acid in acetonitrile, excitation at 800 nm) [nm] | absorbance maximum (λmax, abs) ([2]; 0.1% formic acid in acetonitrile) [nm] | emission maximum (λmax, emiss) ([1]; dichloromethane) [nm] | absorbance maximum (λmax, abs) ([2]; dichloromethane) [nm] | molar absorptivity (ε) ([2]; dichloromethane) | emission maximum (λmax, emiss) ([1]; 10% (v/v) FBS in pH 7.4 PBS) [nm] | emission maximum (λmax, emiss) ([1]; methanol) [nm] | emission maximum (λmax, emiss) [1, 4] [nm] | absorbance maximum (λmax, abs) ([2]; 10% (v/v) FBS in pH 7.4 PBS) [nm] | molar absorptivity (ε) ([2]; 10% (v/v) FBS in pH 7.4 PBS) | absorbance maximum (λmax, abs) ([2]; methanol) [nm] | molar absorptivity (ε) ([2]; methanol) | absorbance maximum (λmax, abs) ([2]; pH 7.4 PBS) [nm] | aggregation [3] | molar absorptivity (ε) [2, 5] | solubility [3]
1 | CC1(C)C(/C=C/C2=C3Oc4ccccc4OC4=C3C(CC2)CC/C4=C\C=C2\N(CCCCS(=O)(=O)[O-])c3ccccc3C2(C)C)=[N+](CCCCS(=O)(=O)[O-])c2ccccc21.[Na+] (centres unmarked) [BisSO3-NIR-890] |  |  |  |  |  |  |  | 900 | 890 | 890 | 877 | 187,000 M^−1cm^−1 | 860 | 275,000 M^−1cm^−1 | 689 |  |  | 
2 | CC1(C)C(/C=C/C2=C3Oc4ccc(C(=O)O)cc4OC4=C3C(CC2)CC/C4=C\C=C2\N(CCCCS(=O)(=O)[O-])c3ccc(S(=O)(=O)[O-])cc3C2(C)C)=[N+](CCCCS(=O)(=O)[O-])c2ccc(S(=O)(=O)[O-])cc21.[Na+].[Na+].[Na+] (centres unmarked) [Compound 6] |  |  |  |  |  |  |  | 896 | 896 | 896 | 868 | 192,000 M^−1cm^−1 | 866 | 208,000 M^−1cm^−1 | 860 | only moderate aggregation | 191,000 M^−1cm^−1 | 
3 | CC1(C)C(/C=C/C2=C3C4=C(/C(=C/C=C5/N(CCCCS(=O)(=O)O)c6ccc(S(=O)(=O)[O-])cc6C5(C)C)CCC4CC2)c2cc(C(=O)O)ccc23)=[N+](CCCCS(=O)(=O)O)c2ccc(S(=O)(=O)O)cc21.N.N.N (centres unmarked) [Compound 8] |  |  |  |  |  |  |  | 1086 | 1103 | 1084 | 1062 | 99,000 M^−1cm^−1 | 1072 | 117,000 M^−1cm^−1 | 1058 |  | 70,000 M^−1cm^−1 | water-soluble
4 | CC1(C)C(/C=C/C2=C3Oc4ccc(C(=O)N(CCCS(=O)(=O)O)CCC(=O)O)cc4OC4=C3C(CC2)CC/C4=C\C=C2\N(CCCCS(=O)(=O)O)c3ccc(S(=O)(=O)[O-])cc3C2(C)C)=[N+](CCCCS(=O)(=O)O)c2ccc(S(=O)(=O)O)cc21.N.N.N.N (centres unmarked) [Compound 10] |  |  |  |  |  |  |  | 900 | 896 | 896 | 871 | 137,000 M^−1cm^−1 | 869 | 187,000 M^−1cm^−1 | 862 | eliminated aggregation in both PBS and serum | 145,000 M^−1cm^−1 | 
5 | CN1/C(=C/C=C2\CCC3CCC(C=O)=C4C3=C2c2ccccc24)C(C)(C)c2ccccc21 (centres unmarked) [Compound 23] | 780 | 600 |  |  |  |  |  |  |  |  |  |  |  |  |  |  |  | 
6 | CN1/C(=C/C=C2\CCC3CCC(/C=C/C4=[N+](C)c5ccccc5C4(C)C)=C4C3=C2c2ccccc24)C(C)(C)c2ccccc21 (centres unmarked) [Compound 25] |  |  |  |  |  |  |  |  | 1110 |  |  |  | 1066 |  |  |  |  | 
7 | CC1(C)C(/C=C/C2=C3Oc4ccc(CCC(=O)O)cc4OC4=C3C(CC2)CC/C4=C\C=C2\N(CCCCS(=O)(=O)[O-])c3ccc(S(=O)(=O)[O-])cc3C2(C)C)=[N+](CCCCS(=O)(=O)[O-])c2ccc(S(=O)(=O)[O-])cc21.[Na+].[Na+].[Na+] (centres unmarked) [NIR-900-Et] |  |  |  |  |  |  |  | 900 | 890 | 900 | 864 | 148,000 M^−1cm^−1 | 860 | 253,000 M^−1cm^−1 | 856 |  | 172,000 M^−1cm^−1 | 
8 | CC1(C)C(/C=C/C2=C3Sc4ccccc4SC4=C3C(CC2)CC/C4=C\C=C2\N(CCCCS(=O)(=O)[O-])c3ccc(S(=O)(=O)[O-])cc3C2(C)C)=[N+](CCCCS(=O)(=O)[O-])c2ccc(S(=O)(=O)[O-])cc21.[Na+].[Na+].[Na+] (centres unmarked) [NIR-950] |  |  |  |  |  |  |  | 955 | 960 | 950 | 902 | 128,000 M^−1cm^−1 | 890 | 193,000 M^−1cm^−1 | 880 |  | 79,000 M^−1cm^−1 | 

More lines, main results first:

Row | emission maximum (λmax, emiss) ([1]; acetonitrile) [nm] | absorbance maximum (λmax, abs) ([2]; acetonitrile) [nm] | emission maximum (λmax, emiss) ([1]; 0.1% formic acid in acetonitrile, excitation at 800 nm) [nm] | absorbance maximum (λmax, abs) ([2]; 0.1% formic acid in acetonitrile) [nm] | emission maximum (λmax, emiss) ([1]; dichloromethane) [nm] | absorbance maximum (λmax, abs) ([2]; dichloromethane) [nm] | molar absorptivity (ε) ([2]; dichloromethane) | SMILES | emission maximum (λmax, emiss) ([1]; 10% (v/v) FBS in pH 7.4 PBS) [nm] | emission maximum (λmax, emiss) ([1]; methanol) [nm] | emission maximum (λmax, emiss) [1, 4] [nm] | absorbance maximum (λmax, abs) ([2]; 10% (v/v) FBS in pH 7.4 PBS) [nm] | molar absorptivity (ε) ([2]; 10% (v/v) FBS in pH 7.4 PBS) | absorbance maximum (λmax, abs) ([2]; methanol) [nm] | molar absorptivity (ε) ([2]; methanol) | absorbance maximum (λmax, abs) ([2]; pH 7.4 PBS) [nm] | aggregation [3] | molar absorptivity (ε) [2, 5] | solubility [3]
9 | 720 | 540 | 906 | 872 |  |  |  | CCCC/N=C/C1=C2C3=C(/C(=C/C=C4/N(C)c5ccccc5C4(C)C)CCC3CC1)c1ccccc12 (centres unmarked) [Compound 26] |  |  |  |  |  |  |  |  |  |  | 
10 |  |  |  |  | 990 | 940 | 134,658 M^−1cm^−1 | CN1/C(=C/C=C2\CCC3CCC(/C=C/C4=[N+](C)c5ccccc5C4(C)C)=C(Cl)C3=C2Cl)C(C)(C)c2ccccc21 (centres unmarked) [N-methyl-NIR-990] |  | 960 |  |  |  | 922 | 46,886 M^−1cm^−1 |  |  |  | organic soluble
